The record followed here is ChEMBL document CHEMBL4190177 (2016).

Active and inactive are the calls of the source. The calls are words filed in the database; no cut-off is given here.

In experiment [1] the test system is C6. The experiment can be described thus: Cytotoxicity against rat C6 cells assessed as reduction in cell viability after 72 hrs by MTT assay. It is filed as functional, cell-based.
Experiment [2] relates to C6. Nature of the experiment: Cytotoxicity against rat C6 cells assessed as reduction in cell viability at 25 to 50 uM after 72 hrs by MTT assay. It is filed as functional, cell-based. In general terms: Formazan colour is commonly taken as a measure of viable cells.
Experiment [3] relates to C6. The experiment can be described thus: Cytotoxicity against rat C6 cells assessed as reduction in cell viability at 10 uM after 72 hrs by MTT assay relative to control. It is filed as functional.
Experiment [4] has as its system U138-MG. The experiment can be described thus: Cytotoxicity against human U138MG cells assessed as reduction in cell viability at 150 uM relative to control. It is filed as functional.
Experiment [5] deals with C6. Nature of the experiment: Cytotoxicity against rat C6 cells assessed as reduction in cell viability at 150 uM relative to control. It is filed as functional.
Experiment [6] deals with C6. The experiment can be described thus: Cytotoxicity against rat C6 cells assessed as reduction in cell viability at 50 uM after 72 hrs by MTT assay relative to control. It is filed as functional.
Experiment [7] has as its system U138-MG. Nature of the experiment: Cytotoxicity against human U138MG cells assessed as reduction in cell viability at 10 uM relative to control. It is filed as functional.
For experiment [8], the system named is C6. The experiment can be described thus: Cytotoxicity against rat C6 cells assessed as reduction in cell viability at 5 uM after 72 hrs by MTT assay relative to control. It is filed as functional.
Experiment [9] deals with C6. The experiment can be described thus: Cytotoxicity against rat C6 cells assessed as reduction in cell viability at 5 to 50 uM after 72 hrs by MTT assay. It is filed as functional, cell-based.

For the compound `CCCCCCCCCCCCCCCCOC(=O)C1=C(C)NC2=C(C(=O)CC(C)(C)C2)C1c1ccccc1` (stereo not given), the Activity result in the experiment on C6 [1] is “Dose-dependent effect”.

Take `CCCCCCCCCCCCCCCCCCOC(=O)C1=C(C)NC2=C(C(=O)CC(C)(C)C2)C1c1cccc(OC)c1` (stereo not given): the Activity entry in the experiment on C6 [1] is “Dose-dependent effect”. Moreover, in the experiment on C6 [2], the outcome was inactive.

On to `CCCCCCCCCCCCCCCCOC(=O)C1=C(C)NC2=C(C(=O)CC(C)(C)C2)C1c1cccc(O)c1` (stereo not given), for which the Activity entry was “Dose-dependent effect” with C6 [1] and 40% with C6 [3].

Consider `O=Cc1cccc(O)c1` [3-HYDROXYBENZALDEHYDE], for which the Activity in the experiment with U138-MG [4] and in the experiment on C6 [5] was 30% each time.

As for `CCOC(=O)C1=C(C)NC(=S)NC1c1cccc(O)c1` (stereo not given) [MONASTROL], the Activity in the experiment with C6 [6] is listed as 50%.

`CCCCCCCCCCCCCCCCOC(=O)C1=C(C)NC(=O)NC1c1cccc(O)c1` (stereo not given): the Activity in the experiment on U138-MG [7] is reported as 50%.

On to `CCCCCCCCCCCCCCCCCCOC(=O)C1=C(C)NC2=C(C(=O)CC(C)(C)C2)C1c1ccc(OC)cc1` (stereo not given), for which the Activity entry in the experiment on C6 [1] was “Dose-dependent effect”.

Turning to `CCCCCCCCCCCCCCCCCCOC(=O)C1=C(C)NC2=C(C(=O)CC(C)(C)C2)C1c1cccc(O)c1` (stereo not given), the Activity entry in the experiment on C6 [1] is “Dose-dependent effect”; in the experiment on C6 [8], 40%.

As for `CCOC(=O)C1=C(C)NC2=C(C(=O)CC(C)(C)C2)C1c1ccccc1` (stereo not given), in the experiment with C6 [9], the result was Active.

As for `CCCCCCCCCCCCCCCCCCOC(=O)C1=C(C)NC2=C(C(=O)CC(C)(C)C2)C1c1cccc([N+](=O)[O-])c1` (stereo not given), in the experiment with C6 [1], the Activity result is “Dose-dependent effect”. Also, the result with C6 [2] was inactive.
